This note sets out measurements from article PMC6281421, “Anticancer activity of 2’-hydroxyflavanone towards lung cancer” (Oncotarget, 2018).

The target in experiment [1] is T1, Rlip (RLIP76) purified from H358 and H1618 cells (Homo sapiens, UniProt Q15311).
T1 construct: gene RALBP1
T1 sequence (Q15311 2-655): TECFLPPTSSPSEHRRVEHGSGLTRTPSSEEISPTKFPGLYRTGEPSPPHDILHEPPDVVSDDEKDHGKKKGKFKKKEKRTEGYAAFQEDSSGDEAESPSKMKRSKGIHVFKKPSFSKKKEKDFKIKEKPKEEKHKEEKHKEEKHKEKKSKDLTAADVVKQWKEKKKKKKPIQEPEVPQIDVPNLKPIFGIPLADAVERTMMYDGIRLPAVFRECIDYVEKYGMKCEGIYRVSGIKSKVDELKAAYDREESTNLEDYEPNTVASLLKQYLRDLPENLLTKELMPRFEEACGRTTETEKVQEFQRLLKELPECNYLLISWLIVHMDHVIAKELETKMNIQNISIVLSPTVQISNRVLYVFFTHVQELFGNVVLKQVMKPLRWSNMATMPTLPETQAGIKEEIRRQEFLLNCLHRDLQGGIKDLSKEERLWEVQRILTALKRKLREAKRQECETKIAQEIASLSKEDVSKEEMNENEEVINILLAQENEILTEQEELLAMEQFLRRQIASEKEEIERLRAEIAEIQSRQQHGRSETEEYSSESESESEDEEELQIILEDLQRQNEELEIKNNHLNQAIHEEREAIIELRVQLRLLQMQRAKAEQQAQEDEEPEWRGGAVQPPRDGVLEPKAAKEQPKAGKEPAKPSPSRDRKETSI
Description: […]-DOX uptake into Rlip proteoliposomes, rapid filtration. The experiment is classed as biochemical. To be noted: read-out: % inhibition of DOX transport at 20 μM.

For experiment [2], the target named is T2, recombinant RLIP (RLIP76) (Homo sapiens, UniProt Q15311).
T2 construct: gene RALBP1; fragments incl; 38 kDa present
T2 sequence (Q15311 1-655): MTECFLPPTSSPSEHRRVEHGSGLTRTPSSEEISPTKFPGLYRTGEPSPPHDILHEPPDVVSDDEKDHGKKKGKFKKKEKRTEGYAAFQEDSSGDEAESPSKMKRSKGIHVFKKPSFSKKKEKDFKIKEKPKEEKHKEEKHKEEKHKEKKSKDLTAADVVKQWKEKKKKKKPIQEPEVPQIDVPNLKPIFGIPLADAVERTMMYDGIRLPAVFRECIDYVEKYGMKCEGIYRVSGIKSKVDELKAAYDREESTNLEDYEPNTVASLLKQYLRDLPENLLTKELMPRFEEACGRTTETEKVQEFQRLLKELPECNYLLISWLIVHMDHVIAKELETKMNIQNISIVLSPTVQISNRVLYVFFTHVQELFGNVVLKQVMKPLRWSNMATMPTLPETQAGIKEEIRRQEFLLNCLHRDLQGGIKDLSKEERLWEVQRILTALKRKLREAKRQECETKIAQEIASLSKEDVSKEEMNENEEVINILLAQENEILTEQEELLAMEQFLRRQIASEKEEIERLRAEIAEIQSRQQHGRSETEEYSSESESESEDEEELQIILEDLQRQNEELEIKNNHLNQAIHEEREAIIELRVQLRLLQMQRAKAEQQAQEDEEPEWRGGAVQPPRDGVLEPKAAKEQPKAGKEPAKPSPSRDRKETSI
In words: DNP-SG affinity resin binding and elution with free DNP-SG. To be noted: 0.2 mM DNP-SG, 10 mM ATP, 10 mM MgCl2; also stimulates the ATPase as allocrite.

In general, inhibition refers to the share of the control response that was lost under treatment. On to `O=C1CC(c2ccccc2O)Oc2ccccc21` (centres unmarked) [2HF, 2'-hydroxyflavanone], for which the inhibition at 20 µM in experiment [1] stood at 22%.

For `N[C@@H](CCC(=O)N[C@@H](CSc1ccc([N+](=O)[O-])cc1[N+](=O)[O-])C(=O)NCC(=O)O)C(=O)O` [DNP-SG, dinitrophenyl-S-glutathione], the “DNP-SG affinity resin binding and elution with free DNP-SG” value in experiment [2] is “the same major Rlip protein bands were observed in the 2HF eluate as in the DNP-SG eluate”.
